Data on eleven molecules can be found in patent publication US4178442A, “Novel cinnamoyles piperazines and homopiperazines, the method of preparing them and their application in therapeutics” (Delalande S. A., priority 1977, dated 1979).

Like-named read-outs stand apart in the source and are kept apart here.

A short description of data set [1]: in vivo. The following applies: for mortality: read-out: Toxicity (Mortality); for LD50: read-out: Toxicity: LD50. An excerpt: *LD50 or percentage of mortality which is given between brackets
The subject of data set [2] is anaesthetized dog. The experiment in a line: Antiangorous activity on anaesthetized dog: consumption of oxygen in the left ventricule and cardiac effort (KATZ's index). The data set is classed as in vivo. The following applies: for inhibition in vivo at 1.25 mg/kg / inhibition in vivo at 2.5 mg/kg / inhibition in vivo at 2.3 mg/kg / inhibition in vivo at […] / inhibition in vivo at 0.625 mg/kg / inhibition in vivo at 1.02 mg/kg: Canis lupus familiaris, iv; for inhibition in vivo at […]: 0.15 mg/kg i.v. slow perfusion. The gist of the method: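 Katz index taken as mean arterial pressure multiplied by ECG (D2) heart rate, and myocardial O2 use as coronary sinus flow via modified Morawitz cannula times coronary arteriovenous O2 difference. Animals: pentobarbital-anaesthetized dogs (30 mg/kg i.v.), test compounds infused slowly intravenously.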

Setting [3] is: 1.25 mg/kg i.v. slow perfusion, read-out: Diminution in consumption of O2.
The mark [4] stands for this setting: 1.25 mg/kg i.v. slow perfusion, read-out: Diminution in the cardiac effort (IK).
Setting [5] is: 2.5 mg/kg i.v. slow perfusion, read-out: Diminution in consumption of O2.
Where [6] appears, read: 2.5 mg/kg i.v. slow perfusion, read-out: Diminution in the cardiac effort (IK).
Setting [7] is: 0.625 mg/kg i.v. slow perfusion.
[8] abbreviates: 0.625 mg/kg i.v. slow perfusion, read-out: Diminution in consumption of O2.
Setting [9] is: 0.625 mg/kg i.v. slow perfusion, read-out: Diminution in the cardiac effort (IK).

Consider `COc1cc(/C=C/C(=O)N2CCN(CCCOc3ccc(C(C)=O)c4c3OCCO4)CC2)cc(OC)c1OC` [760 939, 1-[3-(4-acetyl-2,3-ethylenedioxy)phenoxy]-propyl-4-(3,4,5-trimethoxycinnamoyl)piperazine], for which, in data set [1] (iv, 400 mg/kg i.v.), the mortality – broadly, the percentage killed – was determined as 20%. Also, in data set [2] (1.25 mg/kg i.v. slow perfusion), the “Diminution in consumption of O2: in time” value is given as 30 min and the “Diminution in the cardiac effort (IK): in time” value (“Diminution in the cardiac effort” below) is listed as 23 min. The inhibition in vivo at 1.25 mg/kg in data set [2] (setting [3]) was 27%. Also, in data set [2] (setting [4]), the inhibition in vivo at 1.25 mg/kg was 11%.

Turning to `CCC(=O)c1ccc(OCC(O)CN2CCN(C(=O)/C=C/c3cc(OC)c(OC)c(OC)c3)CC2)cc1` (centres unmarked) [770 854], the mortality in data set [1] (iv, 300 mg/kg i.v.) came out at 20%. In data set [2] (2.5 mg/kg i.v. slow perfusion), the “Diminution in consumption of O2: in time” value amounted to 40 min and the “Diminution in the cardiac effort” value was determined as 40 min. Moreover, in data set [2] (setting [5]), the inhibition in vivo at 2.5 mg/kg came to 41%. For the same molecule, the inhibition in vivo at 2.5 mg/kg in data set [2] (setting [6]) was determined as 18%.

In the case of `COc1cc(/C=C/C(=O)N2CCN(CC(O)COc3ccc([N+](=O)[O-])cc3)CC2)cc(OC)c1OC` (centres unmarked) [760 538], in data set [1] (iv, 185 mg/kg i.v.), the mortality was 10%. In addition, in data set [2] (2.3 mg/kg i.v. slow perfusion), the “Diminution in consumption of O2: in time” value amounted to 15 min and the “Diminution in the cardiac effort” value is listed as 30 min. In addition, the inhibition in vivo at 2.3 mg/kg in data set [2] (2.3 mg/kg i.v. slow perfusion, read-out: Diminution in consumption of O2) was 48%. In addition, in data set [2] (2.3 mg/kg i.v. slow perfusion, read-out: Diminution in the cardiac effort (IK)), the inhibition in vivo at 2.3 mg/kg stood at 37%.

On to `CNC(=O)Nc1ccc(OCC(O)CN2CCN(C(=O)/C=C/c3cc(OC)c(OC)c(OC)c3)CC2)c2c1OCCO2` (centres unmarked) [770 077], for which, in data set [1] (iv, 400 mg/kg i.v.), the mortality is 0%. The figures for the inhibition in vivo at […] in data set [2] (read-out: Diminution in consumption of O2) and in data set [2] (read-out: Diminution in the cardiac effort (IK)) were 44% and 28%, respectively.

`CCOC(=O)Nc1ccc(OCC(O)CN2CCN(C(=O)/C=C/c3cc(OC)c(OC)c(OC)c3)CC2)c2c1OCCO2` (centres unmarked) [770 525]: the LD50 (as a rule, the dose expected to kill half of the subjects tested) in data set [1] (iv) was 325 mg/kg. In addition, in data set [2] (setting [7]), the “Diminution in consumption of O2: in time” value was 60 min and the “Diminution in the cardiac effort” value worked out at 60 min. Further, the inhibition in vivo at 0.625 mg/kg in data set [2] (setting [8]) is 66%. The inhibition in vivo at 0.625 mg/kg in data set [2] (setting [9]) was 43%.

As for `COc1cc(/C=C/C(=O)N2CCN(CC(O)COc3ccc(NC(C)=O)c4c3OCCCO4)CC2)cc(OC)c1OC` (centres unmarked) [780 393], the mortality in data set [1] (iv, 400 mg/kg i.v.) turned out to be 10%. For the same molecule, in data set [2] (setting [7]), the “Diminution in consumption of O2: in time” value worked out at 30 min and the “Diminution in the cardiac effort” value is reported as 30 min. In addition, the inhibition in vivo at 0.625 mg/kg in data set [2] (setting [8]) stood at 24%. In addition, in data set [2] (setting [9]), the inhibition in vivo at 0.625 mg/kg came to 45%.

As for `CNC(=O)c1ccc(OCC(O)CN2CCN(C(=O)/C=C/c3cc(OC)c(OC)c(OC)c3)CC2)c(OC)c1` (centres unmarked) [770 855], the LD50 in data set [1] (iv) was 260 mg/kg. Moreover, the “Diminution in consumption of O2: in time” value in data set [2] (2.5 mg/kg i.v. slow perfusion) is recorded as 60 min. Further, the “Diminution in the cardiac effort” value in data set [2] (2.5 mg/kg i.v. slow perfusion) worked out at 60 min. For the same molecule, the inhibition in vivo at 2.5 mg/kg in data set [2] (setting [5]) was determined as 60%; in data set [2] (setting [6]) it was 45%.

On to `CCCCC(=O)Nc1ccc(OCC(O)CN2CCN(C(=O)/C=C/c3cc(OC)c(OC)c(OC)c3)CC2)c2c1OCCO2` (centres unmarked) [770 601], for which the mortality in data set [1] (po, p.o.: 2000 mg/kg) is 22%. For the same molecule, the “Diminution in consumption of O2: in time” value in data set [2] (setting [7]) is reported as 30 min. The “Diminution in the cardiac effort” value in data set [2] (setting [7]) was 30 min. Moreover, the results for the inhibition in vivo at 0.625 mg/kg in data set [2] (setting [8]) and in data set [2] (setting [9]) were 69% and 25%, respectively.

In the case of `COc1cc(/C=C/C(=O)N2CCN(CC(O)COc3ccc(OC(C)=O)c4c3OCCO4)CC2)cc(OC)c1OC` (centres unmarked) [780 004], the mortality in data set [1] (iv, 400 mg/kg i.v.) came to 10%. Further, the “Diminution in consumption of O2: in time” value in data set [2] (1.25 mg/kg i.v. slow perfusion) is reported as 30 min. For the same molecule, in data set [2] (1.25 mg/kg i.v. slow perfusion), the “Diminution in the cardiac effort” value is 15 min. In addition, the inhibition in vivo at 1.25 mg/kg in data set [2] (setting [3]) is 22%; in data set [2] (setting [4]), 14%.

On to `COc1cc(/C=C/C(=O)N2CCN(CC(O)COc3ccccc3NC(C)=O)CC2)cc(OC)c1OC` (centres unmarked) [770 738], for which, in data set [1] (iv, 400 mg/kg i.v.), the mortality turned out to be 40%. In addition, in data set [2] (2.5 mg/kg i.v. slow perfusion), the “Diminution in consumption of O2: in time” value stood at 45 min and the “Diminution in the cardiac effort” value is listed as 45 min. For the same molecule, in data set [2] (setting [5]), the inhibition in vivo at 2.5 mg/kg was 63%. Moreover, the inhibition in vivo at 2.5 mg/kg in data set [2] (setting [6]) came out at 48%.

For `CC(=O)c1ccc(OCC(O)CN2CCN(C(=O)/C=C/c3ccc(F)cc3)CC2)c2c1OCCO2` (centres unmarked) [770 199], the LD50 in data set [1] (iv) worked out at 328 mg/kg. In data set [2] (1.02 mg/kg i.v. slow perfusion), the “Diminution in consumption of O2: in time” value is 15 min and the “Diminution in the cardiac effort” value is 15 min. Further, the inhibition in vivo at 1.02 mg/kg in data set [2] (1.02 mg/kg i.v. slow perfusion, read-out: Diminution in consumption of O2) stood at 29%. Also, in data set [2] (1.02 mg/kg i.v. slow perfusion, read-out: Diminution in the cardiac effort (IK)), the inhibition in vivo at 1.02 mg/kg was determined as 5%.
